Assay in all cases: growth of human tumour cells (NCI), 48 h
Test [1] concerns HCC-2998 colon.
For test [2], the system named is U251 CNS.
Test [3] deals with NCI-H460 lung.
Test [4] relates to SNB-19 CNS.
For test [5], the system named is HOP-92 NSCLC.
In test [6] the test system is SK-MEL-2 melanoma.
Test [7] relates to RPMI-8226 leukemia.
Test [8] deals with OVCAR-8 ovarian.
The subject of test [9] is DU-145 prostate.
The test system of test [10] is NCI/ADR-RES ovarian.

The structures appear in SMILES notation. Several values for one entry are separate records, joined by “and”; a condition that tells them apart may be missing. Equal entries are not always repeated.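 1) Cells in 96-well plates. 2) Compound, 48 h, 5 concentrations. 3) Linear interpolation between surrounding doses. 4) Unreached endpoint = highest concentration. The concentration for 50% growth inhibition is given as GI50. TGI is the concentration that stops growth completely.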

Consider `Cc1ccccc1C(C(=O)NC1CCCCC1)N(C(=O)CNc1ccc(C#N)cc1)c1cccc(F)c1` (stereo not given), for which the GI50 in test [1] is more than 100 µM; in [2] it was 5.28 µM; in [3] it was 34.4 µM; in test [4] it was 9.13 µM; in [5], 8.65 µM; in test [6], 13.1 µM. Also, the GI50 in test [7] is more than 100 µM; in [8] it was 10.6 µM; in test [9], 64.4 µM; in [10], 26.2 µM. The TGI in test [1] was more than 100 µM; in test [2], more than 100 µM; in test [3], more than 100 µM; in test [4] it was 37.3 µM; in test [5], 28.7 µM; in [6], 32.5 µM. In addition, the TGI in test [7], in test [8], in [9] and in [10] was more than 100 µM each time.
For the compound `COc1ccc2c(c1)C(c1cc(OC)c3c(c1)OCO3)C1=C(COC1=O)N2` (stereo not given), the GI50 is 0.432 µM in test [1]; 0.419 µM in test [2]; 0.348 µM in test [3]; 0.468 µM in [4]; 23.3 µM in test [5]; 0.347 µM in [6]. Besides, the GI50 was 0.461 µM in test [7], 0.504 µM in test [8], 0.397 µM in test [9] and 0.292 µM in [10]. Also, the TGI was more than 47.9 µM in test [2]; more than 20.4 µM in [3]; more than 100 µM in [4]; more than 100 µM in test [5]; more than 44.8 µM in test [6]; more than 100 µM in test [7]. Moreover, the TGI in test [8] was more than 40.7 µM; in [9], 3.16 µM.
On to `O=c1oc2ccc(Br)cc2c(=O)n1-c1ccc(Cl)cc1F`, for which the GI50 in test [1] is 2.68 µM; in [2], 1.26 µM; in test [3], 0.739 µM; in [4], 0.506 µM; in [5] it was 0.179 µM; in test [6] it was 0.69 µM. Moreover, the GI50 in test [7] is 0.446 µM; in [8], 1.7 µM; in test [9], 1.86 µM; in test [10] it was 1.41 µM. The TGI in [1] is 9.53 µM; in test [2], more than 39.2 µM; in [3], 10.7 µM; in test [4] it was more than 100 µM; in test [5], 0.618 µM; in test [6], 4.5 µM. Moreover, the TGI in test [7] was 2.97 µM; in test [8], more than 26.2 µM; in test [9], 21.3 µM; in [10], 6.95 µM.
For `C=CC(=O)Nc1cccc(Oc2nc(Nc3ccc(N4CCN(C)CC4)cc3OC)ncc2Cl)c1`, the GI50 in [1] was 1.72 µM; in [2] it was 1.49 µM; in [3] it was 3.49 µM; in [4], 3.63 µM; in test [5], 0.743 µM; in test [6], 2.19 µM. In addition, the GI50 in test [7] was 1.97 µM; in test [8], 2.08 µM; in test [9], 1.59 µM; in [10], 1.88 µM. Also, the TGI in test [1] was 3.35 µM; in test [2] it was 3.03 µM; in test [3], more than 34.4 µM; in test [4] it was 16.7 µM; in test [5] it was 2.55 µM; in test [6] it was 4.3 µM. Moreover, the TGI in test [7] was 5.1 µM; in test [8], 8.45 µM; in test [9], 6.07 µM; in test [10], 5.69 µM.
For the compound `CN(C)CCOc1ccccc1NC1=C(Cl)C(=O)C(Nc2ccccc2OCCN(C)C)=C(Cl)C1=O`, the GI50 in test [1] was 5.74 µM; in test [2] it was 10.2 µM; in [3], 27.8 µM; in test [4], 24.9 µM; in test [5], 1.45 µM; in [6], 19.2 µM. The GI50 in test [7] is more than 100 µM; in [8], 4.16 µM; in test [9], 6.64 µM; in [10] it was 24.6 µM. Further, the TGI in test [1] is more than 21.6 µM; in test [2], 39.5 µM; in test [3] it was more than 96.4 µM; in test [4], more than 49.8 µM; in test [5], 3.07 µM; in test [6] it was more than 57 µM. Besides, the TGI was more than 100 µM in test [7], 20.7 µM in test [8] and more than 100 µM in [10].
For `Oc1ccccc1/C=N\NC(=S)N/N=C/c1ccccc1O`, the GI50 was 3.62 µM in test [1]; 1.07 µM in [2]; 0.62 µM in [3]; 2.94 µM in test [4]; 10.3 µM in test [5]; 13.4 µM in [6]. Also, the GI50 is 2.77 µM in test [7], 2.34 µM in [8], 2.95 µM in test [9] and 0.543 µM in test [10]. Also, the TGI in test [1] was more than 100 µM; in [2], more than 100 µM; in test [3] it was 12.1 µM; in test [4] it was more than 100 µM; in [5] it was 64.5 µM; in test [6] it was 55.9 µM. Further, the TGI was 34.2 µM in test [7], 51.1 µM in test [8], 61 µM in test [9] and more than 100 µM in test [10].
For the compound `Cn1c(-c2c(N)n(Cc3ccc(F)cc3)c3nc(C#N)c(C#N)nc23)nc2ccccc21`, the GI50 was 1.35 µM in test [1]; 3.18 µM in test [2]; 2.21 µM in test [3]; 12 µM in test [4]; 1.63 µM in test [5]; 3.62 µM in test [6]. The GI50 in test [7] was 1.35 µM; in test [8], 1.63 µM; in [9], 3.02 µM; in [10] it was 7.56 µM. Moreover, the TGI in [1] is 3.05 µM; in [2] it was 15 µM; in test [3], 25.2 µM; in [4], more than 50 µM; in [5], 18.4 µM; in test [6] it was 34.9 µM. Besides, the TGI in test [7] was 7.17 µM; in [8], 11.8 µM; in test [9] it was 21.6 µM; in test [10], 22.5 µM.
As to `COc1ccc(-c2cn(-c3cc(OC)c(OC)c(OC)c3)c(=O)[nH]2)cc1OC`, the GI50 in test [1], in test [2], in [3], in [4], in [5] and in [6] was more than 100 µM each time. In addition, the GI50 in test [7], in [8], in test [9] and in test [10] was more than 100 µM in each case. For the same compound, the TGI in test [1], in test [2], in test [3], in test [4], in test [5] and in test [6] was more than 100 µM each time. For the same compound, the TGI in test [7], in test [8], in test [9] and in test [10] was more than 100 µM each time.
In the case of `COC(=O)[C@@H](C)C[C@H](Cc1ccccc1)NC(=O)c1csc([C@@H](C[C@H](C(C)C)N(C)C(=O)[C@@H](NC(=O)[C@H]2CCCN2C)C2CC2)OC(C)=O)n1`, the GI50 in test [1] is 0.00431 µM and 0.0025 µM; in [2], 0.00287 µM and 0.0025 µM; in test [3], 0.00238 µM and 0.0025 µM; in test [4], 0.00125 µM and 0.0025 µM; in test [5], 0.000286 µM; in test [6], 0.000505 µM. The GI50 in test [7] was 0.000262 µM and 0.0025 µM; in [8] it was 0.00262 µM and 0.0025 µM; in [9] it was 0.000446 µM and 0.0025 µM; in test [10], 0.276 µM and 0.262 µM. The TGI is more than 25 µM in test [1]; more than 25 µM in test [2]; more than 25 µM in test [3]; more than 25 µM in test [4]; 12.2 µM in test [7]; more than 25 µM in [8]. Also, the TGI in test [9] and in test [10] was more than 25 µM in each case.
Take `CN1C(=O)C2(c3ccccc31)C1CC3C(CO1)C1C2C3(CO)CN1C#N` (stereo not given): the TGI in test [1], in test [2], in test [3], in test [4], in test [5] and in test [6] was more than 100 µM throughout. Moreover, the TGI in [7], in test [8], in test [9] and in [10] was more than 100 µM each time.
For `C=C1C(=O)O[C@H]2[C@H]1CC/C(CNC(=O)/C=C/c1ccccc1F)=C\CC[C@@]1(C)O[C@@H]21`, the GI50 was 1.88 µM in test [1]; 1.86 µM in test [2]; 2.36 µM in test [3]; 3.83 µM in test [4]; 1.62 µM in [5]; 1.7 µM in test [6]. Also, the GI50 is 1.41 µM in [7], 2.95 µM in test [8], 1.03 µM in test [9] and 3.1 µM in test [10]. The TGI in test [1] turned out to be 3.59 µM; in [2], 3.75 µM; in test [3] it was 6.19 µM; in test [4] it was 14.4 µM; in test [5], 4.13 µM; in [6], 3.52 µM. The TGI in test [7] stood at 5.84 µM; in test [8], 11.8 µM; in test [9], 2.26 µM; in test [10] it was 26.9 µM.
Consider `C/C=C(\C)C(=O)O[C@H]1C=CC(=O)O[C@H]1COC(=O)[C@H](C)O`, for which the GI50 in test [1] is 14.9 µM; in test [2], 7.35 µM; in test [3], 10.3 µM; in test [4], 12.1 µM; in [5], 7.6 µM; in test [6], 15.3 µM. Besides, the GI50 in [7] was 3.2 µM; in test [8], 12.2 µM; in test [9], 9.17 µM; in test [10], 12.1 µM. Moreover, the TGI in [1] was found to be 30 µM; in [2] it was 21 µM; in [3], 29.1 µM; in test [4], 27 µM; in test [5], 21.1 µM; in test [6], 41.4 µM. For the same compound, the TGI was 14.5 µM in test [7], 28.3 µM in test [8], 22.4 µM in test [9] and 32.6 µM in test [10].
On to `O=[N+]([O-])c1oc2ccc3ccccc3c2c1CCO`, for which the TGI in test [1] was determined as 1.24 µM; in test [2], 56.9 µM; in test [3], 0.819 µM; in [4], 68.4 µM; in [5], 35 µM; in test [6], 3.94 µM. The TGI was 22.2 µM in test [7], 23.1 µM in test [8], more than 36.5 µM in test [9] and 30.1 µM in test [10].
As for `C=C1C(=O)C2=CC1CCC(=O)C1(C)CCC(OC(C)=O)C(C)(C)C1CC2O` (stereo not given), the TGI in [1] is 4 µM; in [2] it was more than 47.1 µM; in test [3], 4.64 µM; in test [4], 15 µM; in [5], 20.3 µM; in [6], 25.6 µM. The TGI is more than 100 µM in [7], 16.5 µM in test [8], 13.9 µM in [9] and 24.9 µM in test [10].
For the compound `O=S(=O)(NCCCNc1cc(-c2cn(-c3ccccc3)nc2-c2cccc(O)c2)ccn1)c1ccc(Br)cc1`, the GI50 is 2 µM in test [1]; 1.21 µM in test [2]; 1.77 µM in test [3]; 2.98 µM in test [4]; 1.83 µM in [5]; 1.95 µM in test [6]. In addition, the GI50 in [7] is 1.45 µM; in test [8], 2.45 µM; in [9] it was 2.45 µM; in [10], 2.33 µM. For the same compound, the TGI in test [1] is 3.78 µM; in test [2] it was 4.44 µM; in test [3] it was 3.72 µM; in [4], 14.7 µM; in test [5] it was 7.55 µM; in [6] it was 3.84 µM. The TGI in [7] turned out to be 4.68 µM; in test [8], 9.29 µM; in [9], 8.08 µM; in [10] it was 8.19 µM.
Regarding `O=C(O)Cc1ccc(N=Nc2c(O)c(C(=O)O)cc3ccccc23)cc1`, the TGI in [1], in test [2], in [3], in [4], in [5] and in test [6] was more than 100 µM in each case. The TGI in test [7], in test [8], in test [9] and in test [10] was more than 100 µM each time.

The values are drawn from PubChem BioAssay (NCI).
